{"source": "patent US20140329782A1", "about": "“COMBINED THERAPEUTIC AGENT” (priority 2011, published 2014)", "key": {"Crohn's disease": {"tested_on": "Crohn's disease", "settings": "cited from earlier work"}, "[1]": {"settings": "in vivo; cited from earlier work"}, "[2]": {"tested_on": "peripheral mononuclear cells isolated from the blood of the test subjects", "settings": "100 μg/ml calcitriol, cited from earlier work"}, "[3]": {"tested_on": "patients suffering from persistent asthma (GINA II)", "assay": "Use and efficacy study in patients with persistent asthma (GINA II)", "assay_type": "in vivo, human", "experimental": "• In the context of a first set of investigations, 11 patients from 32 to 65 years of age suffering from persistent asthma (GINA II) were treated with a combination therapy composed of inhaled glucocorticoid (beclomethasone, 2×200 μg/which inhalational) and inhaled long-acting beta-2 sympathomimetics (LABA, salmeterol) and also, perorally, theophylline. After one week of therapy, it was possible to achieve mild improvement of pulmonary function in 5 of the 11 test subjects. […] In two of the treated patients, it was also possible to reduce the beta-2 agonist demand by 10%. A further group based on 9 patients from 39 to 70 years of age having an identical indication, i.e., persistent asthma (GINA II), who were similarly administered with the abovementioned combination therapy composed of inhaled glucocorticoid and inhaled long-acting beta-2 sympathomimetics and also theophylline additionally received vitamin D for one week in a daily dose of 80 μg. After one week of therapy with the aforementioned dose, it was possible to achieve a mild to moderate improvement in pulmonary function in 6 of the 9 test subjects. After continued long-term therapy for 12 weeks, the persistent bronchial asthma had stabilized insofar as it was possible to reduce the inhaled glucocorticoid need by up to 60% in 7 of the 9 patients and it was possible to even completely temporarily discontinue the inhaled glucocorticoids in 1 of the 9 patients. […] In 4 of the treated patients, it was also possible to reduce the beta-2 agonist need by up to 40%."}, "[4]": {"settings": "after long-term therapy for 12 weeks"}}, "data": [{"compound": "Cn1cnc([N+](=O)[O-])c1Sc1ncnc2nc[nH]c12", "note": "[azathioprine]", "values": [{"measurement": "remission", "setting": "Crohn's disease; maintaining remission", "result": 83, "unit": "%"}]}, {"compound": "CCCC1O[C@@H]2C[C@H]3[C@@H]4CCC5=CC(=O)C=C[C@]5(C)[C@H]4[C@@H](O)C[C@]3(C)[C@]2(C(=O)CO)O1", "note": "(some centres unmarked) [budesonide]", "values": [{"measurement": "systemic adverse effects", "setting": "Crohn's disease; 6 mg of budesonide", "result": "frequent systemic adverse effects with cortisol suppression"}]}, {"compound": "C=C1CC[C@H](O)C/C1=C/C=C1\\CCC[C@]2(C)[C@@H]([C@H](C)CCCC(C)(C)O)CC[C@@H]12", "note": "[calcifediol, 25-Hydroxyvitamin D3]", "values": [{"measurement": "half life", "setting": "[1]", "result": "about 2.5 weeks"}]}, {"compound": "C=C1/C(=C\\C=C2/CCC[C@]3(C)[C@@H]([C@H](C)CCCC(C)(C)O)CC[C@@H]23)C[C@@H](O)C[C@@H]1O", "note": "[calcitriol, 1,25-dihydroxyvitamin D3]", "values": [{"measurement": "production of interferon gamma", "setting": "[2]", "result": "reduces"}, {"measurement": "production of interleukin 10", "setting": "[2]", "result": "stimulates"}, {"measurement": "inhibition of TNF-alpha production by patient group", "setting": "[2]; Crohn's disease patients vs healthy", "result": "only in cells from patients suffering from Crohn's disease and not in cells from healthy patients"}, {"measurement": "production of TNF-alpha in peripheral mononuclear cells", "setting": "[2]; cells from patients suffering from inflammatory bowel diseases", "result": "could be lowered"}]}, {"compound": "vitamin D", "values": [{"measurement": "patients in whom inhaled glucocorticoids could be completely temporarily discontinued", "setting": "[3]; after 12 weeks", "result": "1 of the 9"}, {"measurement": "patients in whom the beta-2 agonist demand could be reduced", "setting": "[3]; after 12 weeks", "result": 4}, {"measurement": "patients in whom the inhaled glucocorticoid demand could be reduced", "setting": "[3]; after 12 weeks", "result": "7 of the 9"}, {"measurement": "reduction of the beta-2 agonist demand", "setting": "[3]; [4]", "result": "up to 40%"}, {"measurement": "reduction of the inhaled glucocorticoid demand", "setting": "[3]; [4]", "result": "up to 60%"}, {"measurement": "test subjects with improvement of pulmonary function", "setting": "[3]; after one week of therapy", "result": "6 of the 9"}, {"measurement": "tolerability", "setting": "[3]; vitamin D 80 μg daily added to the combination therapy", "result": "well tolerated with no adverse effects"}]}]}
